This note sets out measurements from patent publication US6660755B2, “Substituted diaryl or diheteroaryl methans, ethers and amines having retinoid agonist, antagonist or inverse agonist type biological activity” (Allergan, Inc., priority 1997, dated 2003).

Experiment [1] addresses T1, RARγ (Homo sapiens, UniProt P13631).
T1 sequence (P13631 1-454): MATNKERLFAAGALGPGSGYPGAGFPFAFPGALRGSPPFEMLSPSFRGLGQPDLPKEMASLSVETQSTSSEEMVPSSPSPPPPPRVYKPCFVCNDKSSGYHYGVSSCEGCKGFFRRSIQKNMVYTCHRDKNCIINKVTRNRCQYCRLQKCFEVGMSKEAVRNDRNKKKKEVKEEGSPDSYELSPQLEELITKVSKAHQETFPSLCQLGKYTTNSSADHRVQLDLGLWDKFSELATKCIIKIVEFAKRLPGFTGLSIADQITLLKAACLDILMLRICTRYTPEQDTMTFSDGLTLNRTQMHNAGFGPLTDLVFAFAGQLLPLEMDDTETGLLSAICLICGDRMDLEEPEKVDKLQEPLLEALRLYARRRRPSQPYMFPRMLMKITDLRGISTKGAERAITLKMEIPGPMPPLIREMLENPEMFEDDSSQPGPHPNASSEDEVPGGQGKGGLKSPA
Nature of the experiment: Ligand binding assay, RARγ. The text has this:
(§1) A holoreceptor transactivation assay and a ligand binding assay which measure the antagonist/agonist like activity of the compounds of the invention, or their ability to bind to the several retinoid receptor subtypes, respectively, are described in published PCT Application No. WO WO93/11755 (particularly on pages 30-33 and 37-41) published on Jun. 24, 1993, the specification of which is also incorporated herein by reference. A detailed experimental procedure for holoreceptor transactivations has been described by Heyman et al. Cell 1992, 68, 397-406; Allegretto et al. J. Biol. Chem. 1993 268, 26625-26633, and Mangelsdorf et al. The Retinoids: Biology, Chemistry and Medicine, pp 319-349, Raven Press Ltd., New York, which are expressly incorporated herein by reference. The results obtained in this assay are expressed in EC50 numbers, as they are also in the chimeric receptor transactivation assay. The results of ligand binding assay are expressed in Kd numbers. (See Cheng et al. Biochemical Pharmacology 22, 3099-3108, expressly incorporated herein by reference.) Still another transactivation assay, the “PGR assay” is described in the publication Klein et al. J. Biol. Chem. 1996, 271, 22692-22696, which is expressly incorporated herein by reference, and a detailed description is also provided below. The results of the PGR assay are also expressed in EC50 numbers (nanomolar concentration).

The target of experiment [2] is T2, RARγ (Homo sapiens, UniProt P13631, E108G/G109S/G112V).
T2 construct: expressed in transfected cells; host or cells: CV-1 cells
T2 sequence (P13631 1-454 E108G/G109S/G112V): T1 sequence (P13631 1-454) with E108G, G109S, G112V
T2 sequence (P19793 1-462 partner): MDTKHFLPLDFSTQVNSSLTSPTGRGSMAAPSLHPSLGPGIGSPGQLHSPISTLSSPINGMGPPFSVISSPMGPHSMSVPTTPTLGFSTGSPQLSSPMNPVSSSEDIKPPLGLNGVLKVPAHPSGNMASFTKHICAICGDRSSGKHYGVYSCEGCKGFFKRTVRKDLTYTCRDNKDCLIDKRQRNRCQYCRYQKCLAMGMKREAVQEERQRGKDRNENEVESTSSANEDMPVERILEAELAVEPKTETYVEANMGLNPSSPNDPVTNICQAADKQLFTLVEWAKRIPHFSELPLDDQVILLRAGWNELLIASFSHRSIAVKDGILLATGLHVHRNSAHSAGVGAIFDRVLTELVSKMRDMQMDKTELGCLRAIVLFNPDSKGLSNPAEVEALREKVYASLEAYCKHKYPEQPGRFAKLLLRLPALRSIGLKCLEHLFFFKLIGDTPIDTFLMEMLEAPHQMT
Nature of the experiment: PGR assay (RAR-P-GR holoreceptor transactivation), RARγ. The class given is cell-based. Particulars: for EC50: PGR assay (transactivation), CV-1 cells, luciferase reporter; for % Efficiency RARγ: efficiency relative to all-trans-retinoic acid, PGR assay.
Text: as §1
RAR-P-GR holoreceptor Transactivation Assay
CV-1 cells (4×10^5 cells/well) were transiently transfected with the luciferase reporter plasmid MTV-4(R5G)-Luc (0.7 μg/well) containing four copies of the R5G retinoid DNA response element along with the RXRα expression plasmid pRS-hRXRa (0.1 μg/well) and one of the RAR-P-GR expression plasmids (0.05 μg/well) in 12 well plates via calcium phosphate precipitation Chen et al. Mol. Cell. Biol. 1987, 7, 2745-2752 as described by Klein et al. J. Biol. Chem. 1996, 271, 22692, referenced above. The three different RAR-P-GR expression plasmids, pRS-RARα-P-GR, pcDNA3-RARβ-P-GR and pcDNA3-RARγ-P-GR, express RARα, RARβ and RARγ receptors, respectively, which contain modified DNA binding domains such that their “P-boxes” have been altered to that of the glucocorticoid receptor. These RAR-P-GR receptors bind to DNA as heterodimeric complexes with RXR. Specifically, the RAR-P-GR receptors bind retinoic acid response elements designated R5G, comprised of two RAR half sites (nucleotide sequence 5′-GGTTCA-3′) separated by 5 base pairs in which the 3′-half site has been modified to that of a glucocorticoid receptor half site, 5′-AGAACA-3′. To allow for various in transfection efficiency a β-galactosidase expression plasmid (0.01 μg/well) was used as an internal control. Alternatively, the assay was performed in a 96-well microtiter plate format (5000 cells/well) in a manner which was identical to that described above except ⅕ of the amount of the DNA-calcium phosphate precipitant (20 μl instead of 100 Al) was applied to each well. Eighteen hours after introduction of the DNA precipitants, cells were rinsed with phosphate buffered saline (PBS) and fed with D-MEM (Gibco-BRL) containing 10% activated charcoal extracted fetal bovine serum (Gemini Bio-Products). After rinsing with PBS cells were lysed with luciferase activity was measured as previously described in de Wet Mol. Cell. Biol. 1987, 7, 725-737. Luciferase values represent the mean±SEM of triplicate determinations normalized to β-galactosidase activity. The results of the PGR assay are also expressed in EC50 numbers (nanomolar concentration).
(A reporter such as luciferase makes a cellular process visible.)

Numbering of substitutions follows the chain as printed.

In turn, `CC(C)(C)c1ccc(C#Cc2ccc(C(=O)O)c(F)c2)cc1Oc1ccc([N+](=O)[O-])cc1` [Compound 11, 4-[[4′-tert-Butyl-3′-(4″-nitro)phenoxy]phenylethynyl]-2-fluoro-benzoic Acid] yielded a dissociation constant Kd at RARγ [1] of 0.112 µM. Further, at RARγ [2], the EC50 was above 10 µM and the “% Efficiency RARγ” value is recorded as 1%.

Compound `COC(=O)c1ccc(Oc2cc(C#Cc3ccc(C(=O)O)c(F)c3)ccc2C(C)(C)C)cc1` [Compound 10, 4-[[4′-tert-Butyl-3′-(4″-carbomethoxy)phenoxy]phenylethynyl]-2-fluorobenzoic Acid] registered an equilibrium dissociation constant (Kd) on RARγ [1] of 0.066 µM. At RARγ [2], the half-maximal effective concentration (EC50) is above 10 µM and the “% Efficiency RARγ” value was found to be 0%.

Regarding `CC(C)(C)c1ccc(C(=O)Nc2ccc(C(=O)O)c(F)c2)cc1Oc1ccc(C(F)(F)F)cc1` [Compound 13, 4-[[4′-tert-Butyl-3′-(4″-trifluoromethyl)phenoxy]benzoylamino]-2-fluorobenzoic Acid], the Kd at RARγ [1] was 5.69 µM. In addition, at RARγ [2], the EC50 is above 10 µM and the “% Efficiency RARγ” value was 4%.

Compound `CC(C)(C)c1ccc(C#Cc2ccc(C(=O)O)cn2)cc1Oc1ccc(C(F)(F)F)cc1` [Compound 6, 6-[[4′-tert-Butyl-3′-(4″-trifluomethyl)phenoxy]phenylethynyl]-3-nicotinic Acid] registered a Kd at RARγ [1] of 0.317 µM. In addition, on RARγ [2], the concentration for a half-maximal effect (EC50) was above 10 µM and the “% Efficiency RARγ” value amounted to 70%.

One may read the Kd as the free concentration of one partner at which half of the binding sites on the other are occupied at equilibrium, for simple one-to-one binding. A low value points to tighter binding. What is called EC50 is the concentration that produces a half-maximal response.
